Experiment: Solubility of precipitated copper glycerolate
Conditions: suspended in water, pH reduced with sulphuric acid

With “copper (II) glycerolate [copper glycerolate]” as the substance, how does the “pH at which the suspended precipitate re-dissolved” value read?
Its value is “around 4”.

From patent US9420795B2, “Glycolate formulation for preserving wood and like materials” (Matterworks One Limited, priority 2011, dated 2016)
